Measured values from patent publication US10570149B2, “Tricyclic heterocylic derivatives” (MERCK PATENT GMBH, priority 2016, dated 2020).

The molecules below were run on phosphorylation of H2AX (gH2AX) in U2OS-TopBP1-ER cells (assay: gH2AX-TopBP1ER cellular assay). Settings: Table 1, class symbols, 4-OHT.
Type: cell-based
Excerpt: gH2AX-TopBP1ER Cellular Assay
ATR activity is restricted to replicating cells and many of its targets can also be phosphorylated by other PIKKs. These restrictions have limited the development of selective cellular assays in the past. In order to overcome these limitations, a previously developed genetically engineered cellular system in which ATR, and only ATR, can be activated at will in every cell (Toledo et al Genes Dev. 22, 297-302 2008) was used. In this system, the addition of 4-hydroxytamoxifen (4-OHT), promotes the nuclear translocation of a fragment of TopBP1 which then activates ATR. The phosphorylation of H2AX that follows 4-OHT addition in these cells is a direct and selective readout of ATR activity, which is not influenced by the rest of PIKKs. This property has been used in a screen for compounds with ATR inhibitory capacity. U2OS-TopBP1-ER cells stably express the TopBP1 activation domain (aa 978-1286) fused to a mutated estrogen receptor ligand binding domain. Nuclear accumulation of the TopBP1-ER-LBD fusion protein is induced by the synthetic ER antagonist 4-hydroxytamoxifen (4-OHT) (and not by natural ER agonists) mediating specific ATR activation that is independent of DNA damage or cell cycle. In the assay phosphorylation of the ATR substrate H2AX (“gH2AX”) at Serin 139 is detected using an immune-cytochemical procedure and high content imaging. For the assay U2OS-TopBP1-ER cells are plated in culture medium (DMEM high Glucose (no phenol red), 2 mM Glutamax, 1 mM Pyruvate, 10% FCS into Greiner 384 well plates, black, μclear #781090 (4000 cells/well/30 μl) and incubated for at least 20 hours at 37° C., 10% CO2 and 90% rH. Diluted test compounds (1 nM-30 μM final) and 4-OHT (1 μM final) are added simultaneously and cells are incubated for 2 h at 37° C. After fixation with 4% formaldehyde and permeabilisation with 0.2% Triton X-100 a complete immunocytochemical procedure is performed using a specific anti-gH2AX-antibody (Millipore 05-636, clone JBW301) and fluorescently labelled secondary antibody (Alexa Fluor® 488 goat anti-mouse F(ab′)2 fragment, Invitrogen A11017) and parallel nuclear staining for cell counting. The nuclear localised gH2AX signal is detected on an ImageXpress Ultra confocal high content reader and reported as % positive cells (nuclei).
Molecule `CNc1cnc2[nH]ccc2c1-c1nc2c(c(C(C)(C)S(C)(=O)=O)n1)OC[C@@H]1COC[C@@H](C)N21` [A1, {4-[(S)-1-(1-Methanesulfonyl-1-methyl-ethyl)-5-(R)-methyl-5,6,8a,9-tetrahydro-8H-7,10-dioxa-2,4,4b-triaza-phenanthren-3-yl]-1H-pyrrolo[2,3-b]pyridin-5-yl}-methyl-amine] has an IC50 of 10 to 100 nM.
With `C[C@@H]1COC[C@H]2COc3c(nc(-c4ccnc5[nH]ccc45)nc3C(C)(C)S(C)(=O)=O)N21` [A13, (6R,8aS)-1-(1-Methanesulfonyl-1-methyl-ethyl)-5-methyl-3-(1H-pyrrolo[2,3-b]pyridin-4-yl)-5,6,8a,9-tetrahydro-8H-7,10-dioxa-2,4,4b-triaza-phenanthrene] the IC50 was 10 to 100 nM.
`C[C@@H]1COC[C@H]2COc3c(nc(-c4c(N)cnc5[nH]ccc45)nc3C(C)(C)S(C)(=O)=O)N21` [A20, 4-[(4bR,8S)-1-(1-Methanesulfonyl-1-methyl-ethyl)-5-methyl-5,6,8a,9-tetrahydro-8H-7,10-dioxa-2,4,4b-triaza-phenanthren-3-yl]-1H-pyrrolo[2,3-b]pyridin-5-ylamine] was tested, and the IC50 was 10 to 100 nM.
